Results published in patent US9433687B2, “Anti-Notch3 antibodies and antibody-drug conjugates” (Pfizer Inc., priority 2012, dated 2016).

What was measured:
N87 gastric xenografts = assay: N87 gastric xenograft model; format: in vivo, mouse; conditions: for tumor volume: dose 5 mg/kg intravenously Q4d×4
Method: Similar in vivo experiments were performed with the N87 gastric cancer cell line as described above. To generate xenografts, nude (Nu/Nu) female mice were implanted subcutaneously with 8×10^6 N87 cells in 50% Matrigel (BD Biosciences).
The N87 gastric model was also dosed intravenously Q4d×4 with PBS vehicle, rat-human chimeric anti-Notch3 ADCs and control huNeg-8.8 ADCs, at a dose of 5 mg/kg as provided in FIG. 16D.
The N87 gastric model was also dosed intravenously Q4d×4 with PBS vehicle and rat-human chimeric anti-Notch3 ADCs ch28-mc0131, ch75-mc0131, ch28-m(H2O)c-0131 and ch75-m(H2O)c-0131 at a dose of 5 mg/kg as provided in FIG. 16E.

[1] = system: 37622A1 NSCLC patient-derived xenografts; assay: 37622A1 patient derived NSCLC xenograft model; format: in vivo, mouse; conditions: 5 mg/kg Q4dx4
Text: The effects of anti-Notch3 ADCs were examined in immunodeficient mice on the in vivo growth of human tumor xenografts that were established from fragments of freshly resected 37622A1 NSCLC tumors obtained in accordance with appropriate consent procedures (Asterand). The 37622A1 NSCLC patient-derived xenografts were subcutaneously passaged in vivo as fragments from animal to animal in nude (Nu/Nu) female mice. When the tumors reached a volume of 150 to 300 mm^3, they were staged to ensure uniformity of the tumor size among various treatment groups. The 37622A1 NSCLC patient-derived xenografts model was dosed intravenously four times every four days (Q4d×4) with PBS vehicle, humanized anti-Notch3 ADCs, control huNeg-8.8 ADCs and cisplatin at the doses provided in Table 19.

human Notch2 NRR-Fc = target: T1, human Notch2 NRR-Fc (Homo sapiens, UniProt Q04721); assay: Binding to Notch2 NRR-Fc; conditions: N/B = non-binding
T1 construct: Expression constructs encoding human Notch1 and Notch2 NRR regions, fused with human IgG1 Fc fragments; made in house; host or cells: CHO-PACE cells
T1 sequence (Q04721 1425-1677 limits assumed): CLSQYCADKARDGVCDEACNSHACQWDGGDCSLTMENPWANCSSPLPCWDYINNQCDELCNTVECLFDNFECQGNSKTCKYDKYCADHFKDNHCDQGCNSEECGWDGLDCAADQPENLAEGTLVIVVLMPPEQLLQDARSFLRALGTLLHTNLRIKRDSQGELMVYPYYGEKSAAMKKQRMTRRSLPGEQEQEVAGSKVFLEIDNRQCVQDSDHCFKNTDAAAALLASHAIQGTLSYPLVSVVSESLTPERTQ
Text: Other members of the Notch receptor family play important roles in biological processes. For example, a Notch1 or Notch2 deficiency leads to embryonic death in mouse models. In contrast, a Notch4 deficiency results in no detectable phenotype in mouse models. The closest homologues of the Notch3 NRR region are Notch1 and Notch2 (˜50% homology), and Notch4 is a more distant homologue (˜30% homology). Cross-reactivity of anti-Notch3 antibodies to other members of the Notch family, especially Notch1 and 2, may lead to undesired effects in patients. Therefore, the potential cross-reactivity of r28 and hu28, along with r75 and hu75 to other Notch family members were assessed.
Expression constructs encoding human Notch1 and Notch2 NRR regions, fused with human IgG1 Fc fragments were stably introduced into CHO-PACE cells. Conditioned media from these cells expressing NRR-Fc fusions were collected. Human Notch2 NRR-Fc and human Notch1 NRR-Fc were purified by protein A affinity followed by size exclusion chromatography (SEC). Purified preparations were dialysed into TBS with 1 mM CaCl2 and analyzed on analytical SEC to be >99% in purity.

HCC2429 (lung cancer) = assay: In vitro cytotoxicity (MTS), HCC2429; format: cell-based, human; conditions: Table 13; four days; LP = lacked potency
Method: (§1) The effects of anti-Notch3 ADCs were assessed on 1) cell lines endogenously expressing Notch3 protein: HCC2429 (lung cancer), OVCAR3 (ovarian cancer) and MDA-MB-468 (breast cancer), 2) cell lines engineered to over-express full length human Notch3 protein: MDA-MB-468/hNotch3 and U2OS/hNotch3, and 3) a negative control cell line (SW900) using an MTS cellular viability indicator (Promega, Madison, Wis.). These cell lines were cultured with increasing concentrations of anti-Notch3 ADCs comprising rat-human chimeric anti-Notch3 antibodies, ch28 and ch75, and humanized anti-Notch3 antibodies, hu28 and hu75, conjugated to various linker-payload combinations of the present invention. As a specificity control for the anti-Notch3-ADCs, non-targeted control-ADCs (huNeg8.8-ADCs or ch2H6-ADCs) were also tested on the same cell lines. After four days, viability of each culture was assessed. IC50 values were calculated by logistic non-linear regression, model #203 with XL fit v4.2 (IDBS, Guildford, Surry, UK) and presented as ng Ab/mL. The drug antibody ratio (DAR) is also provided.
(§2) This process generated the anti-Notch3 cysteine mutant ADCs: hu28-(L443C)-vc0101 and hu28-(L443C/κK183C)-vc0101. The activity of the anti-Notch3 cysteine mutant ADCs were assessed on cell lines endogenously expressing Notch3 protein: HCC2429 (lung cancer) and OVCAR3 (ovarian cancer) using an MTS cellular viability indicator as described in previous Examples.

OVCAR3 (ovarian cancer) = assay: In vitro cytotoxicity (MTS), OVCAR3; format: cell-based, human; conditions: Table 13; four days; LP = lacked potency
Method: as §1, §2

[2] = system: MDA-MB-468 (breast cancer); assay: In vitro cytotoxicity (MTS), MDA-MB-468; format: cell-based, human; conditions: Table 13; four days; LP = lacked potency
Method: as §1

MDA-MB-468/hNotch3 = target: T2, MDA-MB-468/hNotch3 (Homo sapiens, UniProt Q9UM47); assay: In vitro cytotoxicity (MTS), MDA-MB-468/hNotch3; format: cell-based; conditions: Table 13; four days; LP = lacked potency
T2 construct: cell lines engineered to over-express full length human Notch3 protein: MDA-MB-468/hNotch3 and U2OS/hNotch3; expressed in transfected cells; host or cells: MDA-MB-468
T2 sequence (Q9UM47 40-2321): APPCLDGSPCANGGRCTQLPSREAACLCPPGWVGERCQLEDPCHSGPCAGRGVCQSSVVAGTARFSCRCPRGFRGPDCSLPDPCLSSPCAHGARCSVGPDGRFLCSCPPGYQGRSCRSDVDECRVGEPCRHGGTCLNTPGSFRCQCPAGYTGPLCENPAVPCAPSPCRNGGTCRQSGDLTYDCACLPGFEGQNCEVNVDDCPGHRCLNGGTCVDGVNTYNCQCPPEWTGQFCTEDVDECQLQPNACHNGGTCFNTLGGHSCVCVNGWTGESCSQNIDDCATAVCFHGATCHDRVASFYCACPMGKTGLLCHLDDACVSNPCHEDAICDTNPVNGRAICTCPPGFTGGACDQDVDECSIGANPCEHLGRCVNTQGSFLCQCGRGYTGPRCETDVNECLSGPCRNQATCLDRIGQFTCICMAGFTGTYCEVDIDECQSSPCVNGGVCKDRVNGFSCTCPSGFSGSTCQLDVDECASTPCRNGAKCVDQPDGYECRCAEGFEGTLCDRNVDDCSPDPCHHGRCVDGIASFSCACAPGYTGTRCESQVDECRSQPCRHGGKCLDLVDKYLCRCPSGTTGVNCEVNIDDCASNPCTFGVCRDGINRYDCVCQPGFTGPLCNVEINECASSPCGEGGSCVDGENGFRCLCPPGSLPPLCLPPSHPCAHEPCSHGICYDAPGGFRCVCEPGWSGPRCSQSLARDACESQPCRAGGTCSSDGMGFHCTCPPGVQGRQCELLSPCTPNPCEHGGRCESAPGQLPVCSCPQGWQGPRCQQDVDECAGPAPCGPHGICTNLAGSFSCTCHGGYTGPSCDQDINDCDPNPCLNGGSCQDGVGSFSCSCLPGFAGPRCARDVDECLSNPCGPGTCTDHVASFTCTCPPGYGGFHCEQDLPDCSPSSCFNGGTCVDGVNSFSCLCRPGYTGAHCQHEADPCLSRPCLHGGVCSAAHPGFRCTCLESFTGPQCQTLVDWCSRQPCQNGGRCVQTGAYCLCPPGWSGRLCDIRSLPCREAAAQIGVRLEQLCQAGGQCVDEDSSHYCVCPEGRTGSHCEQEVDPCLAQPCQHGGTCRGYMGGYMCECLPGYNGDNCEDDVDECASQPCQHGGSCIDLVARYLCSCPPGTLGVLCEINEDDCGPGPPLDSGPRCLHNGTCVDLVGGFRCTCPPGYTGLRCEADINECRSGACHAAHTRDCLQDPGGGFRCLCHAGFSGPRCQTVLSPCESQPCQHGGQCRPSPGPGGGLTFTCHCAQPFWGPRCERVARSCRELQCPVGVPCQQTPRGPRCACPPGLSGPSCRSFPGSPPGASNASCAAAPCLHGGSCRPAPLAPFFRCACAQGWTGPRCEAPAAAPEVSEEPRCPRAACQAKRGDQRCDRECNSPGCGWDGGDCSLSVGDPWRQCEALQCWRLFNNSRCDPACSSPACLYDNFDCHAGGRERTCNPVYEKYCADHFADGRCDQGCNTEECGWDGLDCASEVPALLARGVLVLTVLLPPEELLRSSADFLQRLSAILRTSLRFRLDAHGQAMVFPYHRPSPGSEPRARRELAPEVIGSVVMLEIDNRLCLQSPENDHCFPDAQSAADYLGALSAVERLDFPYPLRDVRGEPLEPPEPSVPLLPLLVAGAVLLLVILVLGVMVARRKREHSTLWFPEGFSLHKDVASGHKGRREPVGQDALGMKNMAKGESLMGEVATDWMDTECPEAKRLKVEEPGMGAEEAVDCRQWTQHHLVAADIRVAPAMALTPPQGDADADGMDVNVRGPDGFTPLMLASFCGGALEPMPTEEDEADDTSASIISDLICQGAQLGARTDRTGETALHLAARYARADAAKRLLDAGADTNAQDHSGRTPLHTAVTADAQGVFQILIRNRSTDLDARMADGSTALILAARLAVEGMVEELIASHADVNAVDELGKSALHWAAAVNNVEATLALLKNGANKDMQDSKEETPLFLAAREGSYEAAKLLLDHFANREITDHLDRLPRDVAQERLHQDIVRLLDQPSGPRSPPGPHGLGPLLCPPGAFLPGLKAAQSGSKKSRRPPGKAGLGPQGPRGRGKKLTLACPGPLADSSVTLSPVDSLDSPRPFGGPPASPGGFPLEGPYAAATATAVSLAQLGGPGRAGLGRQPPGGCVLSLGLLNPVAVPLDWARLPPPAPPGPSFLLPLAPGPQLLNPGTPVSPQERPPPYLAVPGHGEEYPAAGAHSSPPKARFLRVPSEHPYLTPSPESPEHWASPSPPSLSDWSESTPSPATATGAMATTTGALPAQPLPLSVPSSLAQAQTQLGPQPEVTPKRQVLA
Method: as §1

## N.N.[Cl][Pt][Cl] [Cisplatin, reference compound]
N87 gastric xenografts; DAY 0
  tumor volume: 328 mm^3
N87 gastric xenografts; DAY 4
  tumor volume: 414 mm^3
N87 gastric xenografts; DAY 7
  tumor volume: 520 mm^3
N87 gastric xenografts; DAY 11
  tumor volume: 501 mm^3
N87 gastric xenografts; DAY 14
  tumor volume: 637 mm^3
[1]; Day 4
  tumor volume: 226 mm^3
[1]; Day 7
  tumor volume: 280 mm^3
[1]; Day 11
  tumor volume: 301 mm^3
[1]; Day 14
  tumor volume: 345 mm^3
[1]; Day 18
  tumor volume: 309 mm^3
[1]; Day 21
  tumor volume: 373 mm^3
[1]; Day 25
  tumor volume: 401 mm^3
[1]; Day 28
  tumor volume: 446 mm^3
[1]; Day 32
  tumor volume: 482 mm^3
[1]; Day 35
  tumor volume: 587 mm^3
[1]; Day 39
  tumor volume: 591 mm^3
[1]; Day 42
  tumor volume: 612 mm^3
[1]; Day 46
  tumor volume: 723 mm^3
[1]; Day 49
  tumor volume: 853 mm^3
[1]; Day 53
  tumor volume: 970 mm^3
[1]; Day 56
  tumor volume: 1215 mm^3
[1]; Day 60
  tumor volume: 1428 mm^3
[1]; Day -1
  tumor volume: 185 mm^3

B1: r28: parental rat anti-Notch3 antibody clone 28 (VH SEQ ID NO: 5, VL SEQ ID NO: 7) (antibody, V domains shown)
VH: EVQLVESGGGLVQPGRSLTLSCVASGFTFRDYGMTWIRQAPGKGLTWVAYISSGSNYIYYAEAVKGRFTISRDNAKNTLYLQMTSLRSEDTALYFCTRRGPFVLDAWGQGASVTVSS
VL: DIQMTQSPSFLSASVGDRVTINCKASQSINRYLHWFQQKLGEAPKLLIYNANGLQTGIPSRFSGSGSGTDFTLTISSLQSEDVATYFCLQHNTWPDTFGAGTKLELK
Human Notch2 NRR-Fc
  Binding to Notch2 NRR-Fc: lacked detectable binding

B2: r75: parental rat anti-Notch3 antibody clone 75 (VH SEQ ID NO: 9, VL SEQ ID NO: 11) (antibody, V domains shown)
VH: QVKLLQSGAALVKPGASVKMSCKASGYAFTDYWVTWVKQSHGKSLEWIGEISPNSGGTNFNEKFKGKATLTVDKSTSTAYMELSRLTSEDSAIYYCTRGEIRYNWFAYWGQGTLVTVSS
VL: DIQMTQSPSSLSASVGDRVTITCKASQNVGNNIAWYQQKPGKAPKLLIYYASNRYTGVPSRFSGSGYGTDFTLTISSLQPEDFATYYCQRLYNSPFTFGGGTKVEIK
Human Notch2 NRR-Fc
  Binding to Notch2 NRR-Fc: lacked detectable binding

B3: ch28-mc0131 (conjugate)
VH: B1 VH
VL: B1 VL
N87 gastric xenografts; 5 mg/kg iv Q4dx4, FIG. 16D, 16E
  growth of N87 gastric xenografts: inhibited growth of N87 gastric xenografts
HCC2429 (lung cancer)
  IC50 (ng Ab/mL) ± S.E.M., HCC2429: 251 ± 77.5 ng Ab/mL
OVCAR3 (ovarian cancer)
  IC50 (ng Ab/mL) ± S.E.M., OVCAR3: 6 ± 1.0 ng Ab/mL
[2]
  IC50 (ng Ab/mL) ± S.E.M., MDA-MB-468: 35 ± 18.5 ng Ab/mL

B4: ch75-vc0101: ch75 conjugated to vc0101 linker-payload (conjugate)
VH: B2 VH
VL: B2 VL
HCC2429 (lung cancer)
  IC50 (ng Ab/mL) ± S.E.M., HCC2429: 2112 ± 826.0 ng Ab/mL
[2]
  IC50 (ng Ab/mL) ± S.E.M., MDA-MB-468: 4064 ± 1793.9 ng Ab/mL
MDA-MB-468/hNotch3
  IC50 (ng Ab/mL) ± S.E.M., MDA-MB-468/hNotch3: 24 ± 4.0 ng Ab/mL

B5: ch75-vc6780 (conjugate)
VH: B2 VH
VL: B2 VL
HCC2429 (lung cancer)
  IC50 (ng Ab/mL) ± S.E.M., HCC2429: 1004 ± 177.0 ng Ab/mL
OVCAR3 (ovarian cancer)
  IC50 (ng Ab/mL) ± S.E.M., OVCAR3: 922 ng Ab/mL
[2]
  IC50 (ng Ab/mL) ± S.E.M., MDA-MB-468: 6873 ± 4230.0 ng Ab/mL
MDA-MB-468/hNotch3
  IC50 (ng Ab/mL) ± S.E.M., MDA-MB-468/hNotch3: 21 ± 3.5 ng Ab/mL
